Assay results reported in patent US5993860A, “NSADI delivery employing a powdered hydrocolloid gum obtainable from higher plants” (Venture Lending, priority 1997, dated 1999).
Several values for one entry are separate records, joined by “and”; a condition that tells them apart may be missing. Equal values may be shown once.

Legend:
[1] = aspirin-induced gastric ulcer model in rats (ulcer severity grade); type: in vivo, rat (Sprague-Dawley male)
Method: Tests were conducted in the aspirin-induced gastric ulcer model. Rats were dosed as indicated below. Five hours after dosing, rats were sacrificed and stomachs were examined for the presence of gastric lesions. A total of 6 treatments were tested. Each treatment was tested in 12 rats. The treatments were prepared immediately prior to use. The aspirin treatments were prepared by suspending 2.00 grams of fine mesh aspirin in 100 ml water (plus 0.1% Tween 80) and then adding the specified amount (i.e. 0, 0.10, 1.00, or 5.00 grams) of Guar gum. The Guar gum 5.0% alone treatment was prepared as above except the aspirin was omitted. All dosing preparations were warmed to about 100° C.; uniformity of suspensions was ensured by constant stirring. Sprague-Dawley male rats, 148 to 190 grams, were individually-housed under standard Vivarium conditions. After arrival, rats were allowed to acclimate in house for a minimum of 5 days before initiation of testing. Rats were fasted (water ad libitum) for 18 hours prior to testing. Treatments 1-6, assigned to rats in random fashion, were administered orally (gavage) at the rate of 10 ml/kilogram (kg). Five hours after treatment, each rat was sacrificed by carbon dioxide inhalation. The abdomen was opened. The stomach was removed, opened along the greater curvature, examined for the presence of lesions, and assigned a severity grade according to the following scale: 0 No lesions 1<5 lesions, at least 1 lesion<2 mm 2<5 lesions, at least 1 lesion>2 mm 3 5 to 10 lesions, all<2 mm 4 5 to 10 lesions, at least 1 lesion>2 mm 5 >10 lesions, all<2 mm 6 >10 lesions, at least 1 lesion>2 mm In order to eliminate bias and reduce subjective variation, all ulcer grading in the study was performed in single-blind fashion by the same well-experienced grader. For each stomach, the severity score was recorded. Data are expressed using the absolute values. […] Statistical significance of differences between means were determined by analysis of variance followed by Neumann-Kuels multiple comparisons test.

[2] = ketoprofen-induced gastric damage in rats; type: in vivo, rat (male Wistar); conditions: ketoprofen 100 mg/kg oral; 5 h after dosing; 15 rats
Method: In this example a dose of ketoprofen (100 mg/kg) was administered to rats to induce gastric damage and guar gum was coadministered to determine its effect. Both the ketoprofen and guar gum were administered as an aqueous mixture.
Seventy-five male Wistar rats each approximately 6 weeks of age and ranging in weight from 206 g to 233 g were housed 5 to a cage in suspended polypropylene cages with wire grid floors. The rats had access to tap water and were fed a standard certified laboratory rodent diet (RM1(E)SQC), ad libitam. Lighting in the animal room was controlled to give 12 hours light (0700-1900 hours) and 12 hours dark each day. The room temperature and relative humidity controls were set at 21° C.±3° C. and 50% ±15% respectively.
After an acclimatization period of 3 days following the day of arrival, the animals were randomized into groups according to bodyweight using random numbers tables so that the group mean bodyweights were approximately equal. Including the day of randomization, there were a further 3 days of acclimatization prior to dosing. […]
Five hours after dosing, the rats were sacrificed by carbon dioxide asphyxiation and the stomachs removed. Each stomach was opened along the greater curvature and examined macroscopically for damage in the glandular portion; any damage was subjectively scored using the following system: […]

Row | SMILES | Ulcer Grade, mean ([1]; Table 5, severity scale 0-6, 5 h after oral gavage, 10 ml/kg, 12 rats) | stomachs with ulcer severity scores of 5 or greater ([1]; number of rats of 12) | mean ulcer severity (mean ± s.e.m.) ([1]; severity scale 0-6, 5 h after dosing) | Group mean score for gastric damage [2]
1 | CC(=O)Oc1ccccc1C(=O)O [Aspirin, acetylsalicylic acid] | 5.8 | 11 of the 12 | 5.8 and 5.75±0.18 | –
2 | CC(C(=O)O)c1cccc(C(=O)c2ccccc2)c1 (stereo not shown) [Ketoprofen] | – | – | – | 13.1
